Data taken from patent US20030096850A1, “Treating infections by administration of oxazolidinones” (priority 2001, published 2003).

What was measured:
[1] = Human who has acne treated with an Oxazolidinone ointment; assay type: in vivo; conditions: person, ointment 30 mg/ml twice daily on skin
[2] = system: Staphylococcal epidermidis; assay: Human treated with Oxazolidinone cream or ointment prior to surgery; assay type: in vivo; conditions: cream or ointment 10-30 mg/ml, evening prior to and morning of surgery
Description: (§1) A 75 kilo […] is being prepared for surgery; the types of surgeries include open-heart surgery, joint replacement, back surgery, or any type of invasive surgery. A cream or ointment preparation of 10-30 mg/ml (S)-N-[[3-[3-fluoro-4-(4-morpholinyl)phenyl]-2-oxo-5-oxazolidinyl]methyl]acetamide is liberally spread by a nurse wearing gloves upon the intended site of the incision and an area of 8 inches around the margins of the intended incision site the evening prior to surgery and the first thing in the morning of the surgery. The area of application is kept free of clothing until the cream or ointment is absorbed.

[3] = system: Staphylococcal aureus; assay: as above; assay type: in vivo; conditions: cream or ointment 10-30 mg/ml, evening prior to and morning of surgery
Description: as §1

[4] = Treatment of diabetic foot with cream or ointment; assay type: in vivo, human; conditions: cream or ointment 10-30 mg/ml three times daily for 10-14 days
Description: A 70 kilo […] with a history of diabetes and infected foot ulcerations, also known as diabetic foot, is treated with a cream or ointment preparation of 10-30 mg/ml (S)-N-[[3-[3-fluoro-4-(4-morpholinyl)phenyl]-2-oxo-5-oxazolidinyl]methyl]acetamide. The cream or ointment is liberally spread over the exposed surface of the ulcerations and adjacent whole skin three times daily for 10-14 days.

[5] = Human who has an ear infection (otitis media) treated with Oxazolidinone solution; assay type: in vivo; conditions: child, ten drops of 10 mg/ml solution into the ear twice daily, before 10 days
Description: Ten drops of a solution containing 10 mg/ml of (S)-N-[[3-[3-fluoro-4-(4-morpholinyl)phenyl]-2-oxo-5-oxazolidinyl]methyl]acetamide is dropped into the ear twice daily for ten days with an eye dropper and is immediately followed by closing the outer ear canal with cotton.

Compound	reddened and swollen pustules after administration [1]	skin commensal pathogen Staphylococcal epidermidis throughout the full thickness of the skin at the incision site [2]	skin commensal pathogen Staphylococcal aureus throughout the full thickness of the skin at the incision site [3]	tissue destruction and repair in the ulcerated area [4]	fever and ear pain [5]
CC(=O)NC[C@H]1CN(c2ccc(N3CCN(C(=O)CO)CC3)c(F)c2)C(=O)O1 [Example 1, (S)-N-[[3-[3-Fluoro-4-[4-(hydroxyacetyl)-1-piperazinyl]-phenyl]-2-oxo-5-oxazolidinyl]methyl]acetamide]	greatly reduced				
CC(=O)NC[C@H]1CN(c2ccc(N3CCOCC3)c(F)c2)C(=O)O1 [Example 2, (S)-N-[[3-[3-Fluoro-4-(4-morpholinyl)phenyl]-2-oxo-5-oxazolidinyl]methyl]acetamide]		killed or are prevented from growing	killed or are prevented from growing	tissue destruction in the ulcerated area has visibly ceased and tissue repair has begun	the fever is down and the pain is gone
